{"source": "patent US20040163143A1", "about": "“Method for efficiently producing transgenic plant using auxin precursor” (NIPPON PAPER INDUSTRIES CO., LTD., priority 2002, published 2004)", "key": {"[1]": {"test_system": "stem sections of a high rooting clone of E. globulus", "experiment": "gene introduction test on high rooting clone of E. globulus, vector pIPT10", "type": "cell-based, Eucalyptus globulus", "settings": "same manner as Example 3 (NAM 1 μM)", "procedure": "Definite buds of a high rooting clone of E. globulus from Chile were aseptically grown using a medium prepared by adding 0.5 mg/l zeatin to the Y basal medium of Example 2, and the elongated stems were cut into sections of 5 mm to be used as samples for gene introduction and infected with the plasmid pIAH6-introduced Agrobacterium in the same manner as in Example 1. The sections after infection culturing were put on an EG basal agar medium (agar 8.5 g/l) supplemented with 500 mg/l ticarcillin and 1 μM of an auxin precursor analogue NAM, and the culturing was continued at 25° C. under light conditions of 30 to 40 μmol/m^2/s in light intensity while sub-culturing at an interval of 2 weeks using the same medium. Four months after the Agrobacterium infection, the redifferentiated adventitious buds were subjected to a GUS staining test in accordance with the above method of Jefferson et al., and the degree of formation of desired gene-introduced adventitious buds was judged. Using plasmid pIPT10 as the vector, a gene introduction test was carried out into a high rooting clone of E. globulus in the same manner as in Example 3."}, "[2]": {"test_system": "populus hybrid strain Y63 stem sections", "experiment": "populus hybrid gene introduction test, vector pIAH6, adventitious bud redifferentiation and multiple bud observation", "type": "cell-based, Populus sieboldii×Populus grandidentata", "settings": "for B Adventitious bud differentiated (number of sections): 10 sections tested; for B/A Redifferentiation ratio / C/A Gene introduction ratio / C/B Selection efficiency: section basis; for number of redifferentiated adventitious buds into which the desired gene was introduced / total number of adventitious buds redifferentiated: bud basis; for C GUS + adventitious bud differentiated (number of sections): sections with bud judged as a multiple bud after culturing for 4 months", "procedure": "A transformant was produced by carrying out gene introduction into a populus hybrid (Populus sieboldii×Populus grandidentata) by the method of the present invention using the pIAH6 used in Example 1 as the vector. A stem of an aseptic seedling of a populus hybrid strain […] That is, the pIAH6-introduced A. tumefaciens LBA4404 obtained in the same manner as in Example 1 was cultured overnight in the YEB liquid medium and then diluted to OD630=0.5 with Y basal medium, and the stem sections prepared in the above were soaked in this cell suspension. Next, each of these sections after removing excess cell suspension was co-cultured with Agrobacterium on an agar medium (agar 8 g/l) prepared by adding 40 mg/l acetosyringone to the Y basal medium, at 25° C. for 3 days in the dark to thereby be infect with the pIAH6-introduced Agrobacterium. In this case, a modified MS medium (10 mM NH4, 30 mM NO3) was supplemented with 20 g/l sucrose and used as the Y basal medium. The sections after infection culturing were put on the Y basal agar medium (agar 8 g/l) supplemented with 500 mg/l ticarcillin and 1 μM, 5 μM or 30 μM of an auxin precursor analogue NAM, followed by culturing at 25° C. under light conditions of 30 to 40 μmol/m^2/s in light intensity. […] That is, since the ipt gene is not introduced into the escape, the adventitious bud was redifferentiated by mere influence of a desired gene-introduced cell which was present adjacent thereto."}, "[3]": {"test_system": "E. globulus hypocotyl sections", "experiment": "E. globulus gene introduction test, vector pIPT10 (ipt only + GUS), adventitious bud redifferentiation and GUS staining", "type": "cell-based, Eucalyptus globulus", "settings": "for B/A Redifferentiation ratio / C/A Gene introduction ratio / C/B Selection efficiency: section basis", "procedure": "Seeds of E. globulus from Chile were sterilized by soaking in 70% ethanol for about 1 minute and then soaking with stirring in a 2% aqueous sodium hypochlorite solution for about 4 hours, washed thoroughly with sterile water, inoculated on an MS agar medium to which 0.5 mg/l zeatin had been added and stored in a refrigerator at 4° C. for 2 days to accelerate germination, and then the germination was carried out by culturing at 25° C. under light conditions of about 10 μmol/m^2/s in light intensity. One to two weeks after the inoculation of the seeds onto the germination medium, hypocotyls were collected by cutting out apical buds, cotyledons and roots of the germinated seedlings, and the hypocotyls were cut into sections of about 5 mm to be used as samples for gene introduction and subjected to the following test. A. tumefaciens EHA105 introduced with the plasmid pIAH6 in the above item I was cultured overnight in the YEB liquid medium and then diluted to OD630 =0.5 with EG basal medium, and the sections of hypocotyl prepared in the above were soaked in the cell suspension. Next, each of the sections after removing excess cell suspension was co-cultured with Agrobacterium on an agar medium (agar 8.5 g/l) prepared by adding 1.0 mg/l zeatin, 0.05 mg/l NAA and 40 mg/l acetosyringone to the EG basal medium, at 25° C. for 3 days in the dark to thereby infect each section with the pIAH6-introduced Agrobacterium. In this case, a modified MS medium having an ammonia nitrogen/nitrate nitrogen concentration ratio of 1:3 (5 mM NH4, 15 mM NO3) was supplemented with 20 g/l sucrose and used as the EG basal medium. The sections after infection culturing were put on an EG basal agar medium (agar 8.5 g/l) supplemented with 500 mg/l ticarcillin and 1 μM or 10 μM of an auxin precursor analogue NAM, and the culturing was continued at 25° C. under light conditions of 30 to 40 μmol/m^2/s in light intensity while sub-culturing at an interval of 2 weeks using the same medium. Among these sections, the quicker ones redifferentiated adventitious buds after about 2 months of the Agrobacterium infection. Three months after the Agrobacterium infection, in order to examine expression of the GUS gene used as a model of the desired gene, the redifferentiated adventitious buds were subjected to a GUS staining test in accordance with the method of Jefferson et al. (Plant Mol. Biol. Rep., 5: 387-405 (1987)), and the degree of formation of desired gene-introduced adventitious buds was judged by examining the number of stained adventitious buds (the number of adventitious buds expressing the desired gene). An E. globulus gene introduction test was carried out in the same manner as in Example 1, except that the hypocotyl sections after the Agrobacterium infection were cultured using the EG basal agar medium (agar 8.5 g/l) supplemented with 500 mg/l ticarcillin and 0 μM, 1 μM or 10 μM NAA as auxin. An E. globulus gene introduction test was carried out in the same manner as in Example 1 or Comparative Example 1, except that a plasmid pIPT10 having only the ipt gene as the selectable marker gene was used as the vector. Also, the vector also has the GUS gene as a model of the desired gene. Structure of T-DNA region of the pIPT10 used in this case is shown in FIG. 2, and results of the gene introduction test are shown in Table 3."}}}
{"compound": "NC(=O)Cc1cccc2ccccc12", "note": "[NAM, naphthaleneacetic acid amide]", "values": [{"measurement": "redifferentiated individuals into which the desired gene was introduced", "setting": "[1]", "result": "not obtained"}, {"measurement": "redifferentiation of adventitious buds", "setting": "[1]", "result": "not redifferentiated"}, {"measurement": "B Adventitious bud differentiated (number of sections)", "setting": "[2]; NAM 1 μM in medium", "result": "7 number of sections"}, {"measurement": "B/A Redifferentiation ratio", "setting": "[2]; NAM 1 μM in medium", "result": 70.0, "unit": "%"}, {"measurement": "C/A Gene introduction ratio", "setting": "[2]; NAM 1 μM in medium", "result": 50.0, "unit": "%"}, {"measurement": "C/B Selection efficiency", "setting": "[2]; NAM 1 μM in medium", "result": 71.4, "unit": "%"}, {"measurement": "number of redifferentiated adventitious buds into which the desired gene was introduced", "setting": "[2]; NAM 1 μM", "result": 6}, {"measurement": "total number of adventitious buds redifferentiated", "setting": "[2]; NAM 1 μM", "result": 67}, {"measurement": "C GUS + adventitious bud differentiated (number of sections)", "setting": "[2]; NAM 1 μM", "result": "5 number of sections"}, {"measurement": "B Adventitious bud differentiated (number of sections)", "setting": "[2]; NAM 5 μM in medium", "result": "6 number of sections"}, {"measurement": "B/A Redifferentiation ratio", "setting": "[2]; NAM 5 μM in medium", "result": 60.0, "unit": "%"}, {"measurement": "C/A Gene introduction ratio", "setting": "[2]; NAM 5 μM in medium", "result": 40.0, "unit": "%"}, {"measurement": "C/B Selection efficiency", "setting": "[2]; NAM 5 μM in medium", "result": 66.7, "unit": "%"}, {"measurement": "number of redifferentiated adventitious buds into which the desired gene was introduced", "setting": "[2]; NAM 5 μM", "result": 5}, {"measurement": "total number of adventitious buds redifferentiated", "setting": "[2]; NAM 5 μM", "result": 34}, {"measurement": "C GUS + adventitious bud differentiated (number of sections)", "setting": "[2]; NAM 5 μM", "result": "4 number of sections"}, {"measurement": "B Adventitious bud differentiated (number of sections)", "setting": "[2]; NAM 30 μM in medium", "result": "0 number of sections"}, {"measurement": "B/A Redifferentiation ratio", "setting": "[2]; NAM 30 μM in medium", "result": 0, "unit": "%"}, {"measurement": "C/A Gene introduction ratio", "setting": "[2]; NAM 30 μM in medium", "result": 0, "unit": "%"}, {"measurement": "C/B Selection efficiency", "setting": "[2]; NAM 30 μM in medium", "result": 0, "unit": "%"}, {"measurement": "C GUS + adventitious bud differentiated (number of sections)", "setting": "[2]; NAM 30 μM", "result": "0 number of sections"}, {"measurement": "B Adventitious bud differentiated (number of sections)", "setting": "[3]; additive 1 μM in medium", "result": "2 number of sections"}, {"measurement": "C GUS + adventitious bud differentiated (number of sections)", "setting": "[3]; additive 1 μM in medium", "result": "0 number of sections"}, {"measurement": "B/A Redifferentiation ratio", "setting": "[3]; additive 1 μM in medium", "result": 4.4, "unit": "%"}, {"measurement": "C/A Gene introduction ratio", "setting": "[3]; additive 1 μM in medium", "result": 0.0, "unit": "%"}, {"measurement": "C/B Selection efficiency", "setting": "[3]; additive 1 μM in medium", "result": 0, "unit": "%"}, {"measurement": "B Adventitious bud differentiated (number of sections)", "setting": "[3]; additive 10 μM in medium", "result": "0 number of sections"}, {"measurement": "C GUS + adventitious bud differentiated (number of sections)", "setting": "[3]; additive 10 μM in medium", "result": "0 number of sections"}, {"measurement": "B/A Redifferentiation ratio", "setting": "[3]; additive 10 μM in medium", "result": 0, "unit": "%"}, {"measurement": "C/A Gene introduction ratio", "setting": "[3]; additive 10 μM in medium", "result": 0.0, "unit": "%"}, {"measurement": "C/B Selection efficiency", "setting": "[3]; additive 10 μM in medium", "result": 0, "unit": "%"}]}
